ChEMBL document CHEMBL2029208 (Bioorg Med Chem, 2012)
Values after ≈ are worked out from the molar mass of the structure shown.

How the values were obtained:
[1] = system: Mycobacterium tuberculosis; experiment: microbe, parasite or virus in culture; assay type: functional; conditions: H37Ra
[2] = molecular target: T1, Bifunctional epoxide hydrolase 2 (Homo sapiens, UniProt P34913);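 note: recombinant enzyme with CMNPC substrate, fluorescence readout of 6-methoxy-2-naphthaldehyde formed over a 10 min reaction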
T1 sequence (P34913 whole entry): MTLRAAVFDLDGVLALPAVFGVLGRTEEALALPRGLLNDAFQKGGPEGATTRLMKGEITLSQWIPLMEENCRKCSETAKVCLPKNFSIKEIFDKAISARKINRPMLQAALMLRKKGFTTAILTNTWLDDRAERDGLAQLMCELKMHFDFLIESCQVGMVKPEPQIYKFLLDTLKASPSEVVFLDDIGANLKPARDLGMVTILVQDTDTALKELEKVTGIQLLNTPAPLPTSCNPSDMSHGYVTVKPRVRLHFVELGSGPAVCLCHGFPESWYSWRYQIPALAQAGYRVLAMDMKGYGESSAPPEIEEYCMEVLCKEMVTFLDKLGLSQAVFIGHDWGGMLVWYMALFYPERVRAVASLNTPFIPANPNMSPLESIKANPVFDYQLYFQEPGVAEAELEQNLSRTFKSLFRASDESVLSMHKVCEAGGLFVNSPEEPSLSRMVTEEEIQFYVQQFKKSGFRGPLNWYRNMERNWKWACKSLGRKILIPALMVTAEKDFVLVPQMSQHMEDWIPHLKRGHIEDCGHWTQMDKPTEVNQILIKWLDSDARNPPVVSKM

SMILES | MIC [1] [µg/mL] | IC50 [2] [nM]
CC(=O)c1cccc(NC(=O)NC23CC4CC(CC(C4)C2)C3)c1 | 3.9 (≈ 12.5 µM) | 1.3
O=C(Nc1cccc(OC(F)F)c1)NC12CC3CC(CC(C3)C1)C2 | 0.8 (≈ 2.38 µM) | 2.6
O=C(Nc1cccc(OC(=O)c2ccccc2)c1)NC12CC3CC(CC(C3)C1)C2 | 2.4 (≈ 6.15 µM) | 
O=C(NC12CC3CC(CC(C3)C1)C2)N[C@H]1CC[C@H](O)CC1 | > 58 | 
O=C(NCCCCCOCCOCCOCc1ccccc1)NC12CC3CC(CC(C3)C1)C2 | 46 (≈ 100 µM) | 10.8
CCC(=O)Oc1cccc(NC(=O)NC23CC4CC(CC(C4)C2)C3)c1 | 17 (≈ 49.6 µM) | 
O=C(Nc1ccc(Oc2ccccc2)cc1)NC12CC3CC(CC(C3)C1)C2 | 0.1 (≈ 0.276 µM) | 0.5
O=C(NC12CC3CC(CC(C3)C1)C2)N[C@H]1CC[C@H](Oc2cccc(F)c2)CC1 | 14 (≈ 36.2 µM) | 
O=C(Nc1cccc(C(=O)N2CCOCC2)c1)NC12CC3CC(CC(C3)C1)C2 | > 77 | 
CCOCCOCCOCCCCCCNC(=O)NC12CC3CC(CC(C3)C1)C2 | 82 (≈ 200 µM) | 1.2
O=C(Nc1ccc(Oc2ccc(F)cc2)cc1)NC12CC3CC(CC(C3)C1)C2 | 0.6 (≈ 1.58 µM) | 
CCCC(C)OCCOCCOCCCCCNC(=O)NC12CC3CC(CC(C3)C1)C2 (centres undefined) | > 91 | 6.2
O=C(NC12CC3CC(CC(C3)C1)C2)N[C@H]1CC[C@@H](Oc2ccc(F)cc2)CC1 | > 20 | 
O=C(Nc1ccc(I)cc1)NC12CC3CC(CC(C3)C1)C2 | 0.6 (≈ 1.51 µM) | 0.5
CC(C)Oc1cc(F)c(CO[C@H]2CC[C@@H](NC(=O)NC34CC5CC(CC(C5)C3)C4)CC2)c(F)c1 | 6.7 (≈ 14.1 µM) | 
CCCCCCc1ccc(NC(=O)NC2CCCCC2)cc1 | 1.89 (≈ 6.25 µM) | 1.8
O=C(Nc1cccc(C(=O)NCC2CN(Cc3ccccc3)CCO2)c1)NC12CC3CC(CC(C3)C1)C2 (centres undefined) | > 101 | 13.6
COCCOCCCCCNC(=O)NC12CC3CC(CC(C3)C1)C2 | 68 (≈ 201 µM) | 12.1
COc1cc(NC(=O)NC23CC4CC(CC(C4)C2)C3)cc(C(F)(F)F)c1 | 0.58 (≈ 1.57 µM) | 1.7
COC(=O)c1cc(NC(=O)NC23CC4CC(CC(C4)C2)C3)ccc1O | 1.1 (≈ 3.19 µM) | 
O=C(NCCCN1CCOCC1)NC12CC3CC(CC(C3)C1)C2 | > 64 | 610
O=C(NC12CC3CC(CC(C3)C1)C2)N[C@H]1CC[C@H](OCc2ccccc2)CC1 | > 77 | 
O=C(Nc1ccc(O)cc1)NC12CC3CC(CC(C3)C1)C2 | 57 (≈ 199 µM) | 

SMILES | MIC [1] [µg/mL] | IC50 [2] [nM]
O=C(NC12CC3CC(CC(C3)C1)C2)N[C@H]1CC[C@H](Oc2ccc(C(F)(F)F)cn2)CC1 | > 88 | 4.8
O=C(O)CCCc1ccc(NC(=O)NC23CC4CC(CC(C4)C2)C3)cc1 | 36 (≈ 101 µM) | 
O=C(NC12CC3CC(CC(C3)C1)C2)N[C@H]1CC[C@H](Oc2cc(F)cc(F)c2)CC1 | > 41 | 
O=C(NC12CC3CC(CC(C3)C1)C2)N[C@H]1CC[C@H](OCc2ccc(Br)cc2)CC1 | > 92 | 
O=C(Nc1ccc(OCCOCCOCC(F)(F)F)cc1)NC12CC3CC(CC(C3)C1)C2 | 11 (≈ 24.1 µM) | 3.3
O=C(Nc1ccc(O)c(Cl)c1)NC12CC3CC(CC(C3)C1)C2 | 2 (≈ 6.23 µM) | 5.1
O=C(NC12CC3CC(CC(C3)C1)C2)N[C@H]1CC[C@H](OCCCN2CCOCC2)CC1 | > 42 | 
CCc1ccc(OCCOCCOCCCCCNC(=O)NC23CC4CC(CC(C4)C2)C3)cc1 | 24 (≈ 50.8 µM) | 
CCOCCOCCOc1cccc(NC(=O)NC23CC4CC(CC(C4)C2)C3)c1 | 2.52 (≈ 6.26 µM) | 
COC(=O)c1ccc(NC(=O)N[C@H]2CC[C@@H](Oc3cc(C(=O)OC)cc(C(=O)OC)c3)CC2)cc1 | 3.03 (≈ 6.25 µM) | 3.8
O=C(Nc1ccc(C(=O)c2ccccc2)cc1)NC12CC3CC(CC(C3)C1)C2 | 1.8 (≈ 4.81 µM) | 1.6
O=C(Nc1ccc(OC(F)(F)F)cc1)Nc1ccc(OC(F)(F)F)cc1 | 4.75 (≈ 12.5 µM) | 9.6
CC(=O)c1ccc(NC(=O)NC23CC4CC(CC(C4)C2)C3)cc1 | 2 (≈ 6.4 µM) | 6.3
C=CCO[C@H]1CC[C@@H](NC(=O)NC23CC4CC(CC(C4)C2)C3)CC1 | > 66 | 1.3
O=C(Nc1ccc(C(F)(F)F)cc1)Nc1ccc(C(F)(F)F)cc1 | 2.18 (≈ 6.26 µM) | 15
O=C(Nc1ccc(OC2CCOC2=O)cc1)NC12CC3CC(CC(C3)C1)C2 (centres undefined) | > 37 | 
O=C(Nc1ccc(CC(=O)c2ccccc2)cc1)NC12CC3CC(CC(C3)C1)C2 | 2.43 (≈ 6.25 µM) | 4.7
O=C(Nc1ccc(-n2ccnc2)cc1)NC12CC3CC(CC(C3)C1)C2 | > 44 | 
O=C(NCC#CCOc1ccc(F)cc1)NC12CC3CC(CC(C3)C1)C2 | 0.7 (≈ 1.96 µM) | 
CCOCCOCC(OC(=O)CCCNC(=O)NC12CC3CC(CC(C3)C1)C2)c1ccccc1 (centres undefined) | 95 (≈ 201 µM) | 4.2
CCCCOCCCCCNC(=O)NC12CC3CC(CC(C3)C1)C2 | 2.1 (≈ 6.24 µM) | 
O=C(Nc1ccc(OCCN2CCOCC2)c(Cl)c1)NC12CC3CC(CC(C3)C1)C2 | 27 (≈ 62.2 µM) | 0.6
C=C(CCCNC(=O)NC12CC3CC(CC(C3)C1)C2)OCCOCCOCC | > 79 | 67

SMILES | MIC [1] [µg/mL] | IC50 [2] [nM]
CC(=O)Oc1ccc(NC(=O)NC23CC4CC(CC(C4)C2)C3)cc1 | 66 (≈ 201 µM) | 
O=C(Nc1cccc(Oc2ccc(F)cc2)c1)NC12CC3CC(CC(C3)C1)C2 | 2.5 (≈ 6.57 µM) | 
CO[C@H]1CC[C@H](NC(=O)NC23CC4CC(CC(C4)C2)C3)CC1 | > 61 | 
CC(=O)c1ccccc1NC(=O)NC12CC3CC(CC(C3)C1)C2 | > 3.1 | 
COc1ccc(NC(=O)NC23CC4CC(CC(C4)C2)C3)cc1O | 32 (≈ 101 µM) | 
CC(C)c1ccc(NC(=O)NC2CCCCC2)cc1 | 3.25 (≈ 12.5 µM) | 
CC(C)Oc1cc(F)c(CO[C@H]2CC[C@H](NC(=O)NC34CC5CC(CC(C5)C3)C4)CC2)c(F)c1 | 11.9 (≈ 25 µM) | 
CN1CCN(CCCCOc2cccc(NC(=O)NC34CC5CC(CC(C5)C3)C4)c2)CC1 | 44 (≈ 99.9 µM) | 
O=C(NC12CC3CC(CC(C3)C1)C2)N[C@H]1CC[C@@H](Oc2cc(F)cc(F)c2)CC1 | 10 (≈ 24.7 µM) | 
CC(=O)Nc1ccc(NC(=O)NC23CC4CC(CC(C4)C2)C3)cc1 | 65 (≈ 199 µM) | 
O=C(Nc1cccc(OCCCN2CCOCC2)c1)NC12CC3CC(CC(C3)C1)C2 | 32 (≈ 77.4 µM) | 
O=C(Nc1ccccc1OCCCN1CCOCC1)NC12CC3CC(CC(C3)C1)C2 | 21 (≈ 50.8 µM) | 
COC(=O)c1cccc(NC(=O)NC23CC4CC(CC(C4)C2)C3)c1 | 1.2 (≈ 3.65 µM) | 
CCCCCCCOCCNC(=O)NC12CC3CC(CC(C3)C1)C2 | 2.1 (≈ 6.24 µM) | 
CCOCCOCCOc1ccc(NC(=O)NC23CC4CC(CC(C4)C2)C3)cc1 | 10 (≈ 24.8 µM) | 
CN1CCN(CCCOc2ccc(NC(=O)NC34CC5CC(CC(C5)C3)C4)cc2)CC1 | 62 (≈ 145 µM) | 
O=C(NC12CC3CC(CC(C3)C1)C2)N[C@H]1CC[C@H](OCC2CCCCC2)CC1 | > 78 | 
COc1ccc(NC(=O)NC23CC4CC(CC(C4)C2)C3)cc1 | 1.88 (≈ 6.26 µM) | 
O=C(Nc1cccc(OCCCCN2CCOCC2)c1)NC12CC3CC(CC(C3)C1)C2 | 21 (≈ 49.1 µM) | 
O=C(Nc1cccc(C(=O)N2CCC(N3CCOCC3)CC2)c1)NC12CC3CC(CC(C3)C1)C2 | > 93 | 
CO[C@H]1CC[C@@H](NC(=O)NC23CC4CC(CC(C4)C2)C3)CC1 | > 61 | 
O=C(Nc1ccccc1)NC12CC3CC(CC(C3)C1)C2 | 14 (≈ 51.8 µM) | 
O=C(Nc1ccc(OCCCCN2CCOCC2)cc1)NC12CC3CC(CC(C3)C1)C2 | 21 (≈ 49.1 µM) | 

SMILES | MIC [1] [µg/mL] | IC50 [2] [nM]
O=C(NC12CC3CC(CC(C3)C1)C2)N[C@H]1CC[C@H](Oc2ccc(F)cc2)CC1 | > 39 | 
O=C(Nc1ccccc1OCCCCN1CCOCC1)NC12CC3CC(CC(C3)C1)C2 | 21 (≈ 49.1 µM) | 
O=C(Nc1ccc(C(=O)O)cc1)N[C@H]1CC[C@@H](Oc2ccc(F)cc2)CC1 | 4.65 (≈ 12.5 µM) | 
CCOC(=O)C(C)Oc1ccc(NC(=O)NC23CC4CC(CC(C4)C2)C3)cc1 (centres undefined) | 19 (≈ 49.2 µM) | 
O=C(Nc1cccc(C(=O)NCCN2CCOCC2)c1)NC12CC3CC(CC(C3)C1)C2 | > 30 | 
COc1ccc(O[C@H]2CC[C@H](NC(=O)NC34CC5CC(CC(C5)C3)C4)CC2)cc1 | > 80 | 
CCC(=O)Oc1ccc(NC(=O)NC23CC4CC(CC(C4)C2)C3)cc1 | > 68 | 
COc1ccccc1NC(=O)NC12CC3CC(CC(C3)C1)C2 | 30 (≈ 99.9 µM) | 
CC(C)(C)OC(=O)N1CCN(CCCOc2ccc(NC(=O)NC34CC5CC(CC(C5)C3)C4)cc2)CC1 | 6.21 (≈ 12.1 µM) | 
O=C(NC12CC3CC(CC(C3)C1)C2)N[C@H]1CC[C@H](Oc2ccc(Br)cc2)CC1 | > 89 | 
O=C(NC12CC3CC(CC(C3)C1)C2)N[C@H]1CC[C@@H](OCc2c(F)cccc2F)CC1 | 42 (≈ 100 µM) | 
O=C(Nc1ccc(OCCN2CCOCC2)cc1)NC12CC3CC(CC(C3)C1)C2 | > 30 | 
O=C(NCCCCOc1ccc(F)cc1)NC12CC3CC(CC(C3)C1)C2 | 2.25 (≈ 6.24 µM) | 
COc1ccc(O[C@H]2CC[C@@H](NC(=O)NC34CC5CC(CC(C5)C3)C4)CC2)cc1 | > 80 | 
CCOCCOCCOCCCCCNC(=O)NC12CC3CC(CC(C3)C1)C2 | > 79 | 
C[C@H](NC(=O)Cc1ccc(NC(=O)NC23CC4CC(CC(C4)C2)C3)cc1)C(=O)N[C@@H](Cc1c[nH]c2ccccc12)C(=O)O | 66 (≈ 113 µM) | 
CCCCOC(=O)CCCCCCCCCCCNC(=O)NC12CC3CC(CC(C3)C1)C2 | 5.61 (≈ 12.5 µM) | 
O=C(Nc1ccc(OC(=O)c2ccccc2)cc1)NC12CC3CC(CC(C3)C1)C2 | 39 (≈ 99.9 µM) | 
COC(=O)c1ccc(NC(=O)NC23CC4CC(CC(C4)C2)C3)cc1 | 2 (≈ 6.09 µM) | 
O=C(Nc1cccc(C(=O)OCc2ccccc2)c1)NC12CC3CC(CC(C3)C1)C2 | 0.3 (≈ 0.742 µM) | 
